Data: PMC9543391, “ERp57 chaperon protein protects neuronal cells from Aβ‐induced toxicity” (Journal of Neurochemistry, 2022)
Peptide text beside a SMILES is read from it.

Key:
AD 5XFAD mice model = conditions: activation of ERp57, cerebral cortex and hippocampus, ref Tohda et al., [2012]; cited from earlier work
Excerpt: ERp57 has been previously linked to key processes in neurodegeneration and particularly in AD pathogenesis.

[1] = biological target: ERp57 (human recombinant PDIA3) (human) (UniProt P30101); experiment: SPR; ERp57 immobilised by amine coupling on a COOH5 sensorchip (about 4000 RU), SensiQ Pioneer; non-aggregated Aβ25-35 injected for 240 s at 30 μl/min at 15.6 μM to 1.0 mM; 25°C; HBSP buffer (20 mM HEPES pH 7.4, 150 mM NaCl, 0.005% Tween-20); global kinetic fits with one or two binding sites (Qdat 4.0)
ERp57 = biological target: T1, ERp57 (Homo sapiens, UniProt P30101); experiment: Surface plasmon resonance, Aβ25−35 binding to immobilized ERp57; conditions: SPR, ERp57 on COOH5 sensorchip; global fitting with one binding site; non-aggregated Aβ25−35 15.6 μM–1.0 mM; HBSP buffer pH 7.4; 25°C; read-out: overall K D
T1 construct: made in house; host or cells: E. coli BL21, vector pET21
T1 sequence (P30101 25-505): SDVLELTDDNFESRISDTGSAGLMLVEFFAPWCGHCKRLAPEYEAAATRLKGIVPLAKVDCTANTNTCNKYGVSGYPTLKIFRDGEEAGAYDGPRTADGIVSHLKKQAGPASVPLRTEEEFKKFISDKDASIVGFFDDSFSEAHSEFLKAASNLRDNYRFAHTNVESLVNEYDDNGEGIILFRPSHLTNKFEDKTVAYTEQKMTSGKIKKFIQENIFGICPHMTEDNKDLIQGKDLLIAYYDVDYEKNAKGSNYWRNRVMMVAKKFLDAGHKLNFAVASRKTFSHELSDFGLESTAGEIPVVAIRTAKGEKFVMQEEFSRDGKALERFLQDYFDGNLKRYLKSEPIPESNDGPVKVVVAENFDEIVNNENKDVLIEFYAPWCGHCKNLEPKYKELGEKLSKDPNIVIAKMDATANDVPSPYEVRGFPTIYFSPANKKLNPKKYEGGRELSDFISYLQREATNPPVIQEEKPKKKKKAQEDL
Excerpt: Human recombinant PDIA3 was cloned and expressed in E. coli strain BL21 (Invitrogen™, catalog number C600003) using the expression vector pET21 (Novagen, catalog number 69770) as described by Coppari (Coppari et al., [2002]). The coding sequence for the second redox‐active domain (aʹ domain, residues 377–505) was amplified by PCR as previously described and cloned in the expression vector pET29 (Novagen) (Grillo et al., [2002]). Recombinant proteins were expressed in E. coli strain BL21 and purified by ammonium sulfate fractionation, ion exchange, and heparin chromatography (Grillo et al., [2006]). Protein purification was evaluated by SDS‐PAGE and concentration was determined spectrophotometrically (PDIA3 Ɛ280 reduced form = 44 810 M^−1 cm^−1, aʹ domain Ɛ280 reduced form = 14 400 M^−1 cm^−1). Rabbit anti‐ERp57 primary antibody will be shared upon reasonable request.
SPR experiments were performed with a SensiQ Pioneer apparatus. […] The amount of immobilized ERp57 was detected by mass concentration‐dependent changes in the refractive index on the sensorchip surface and corresponded to about 4000 resonance units (RU). […] Values of the plateau signal at steady‐state (Req) and full fittings with 1, 2, and 3 sites were calculated from kinetic evaluation of the sensorgrams using the Qdat 4.0 program.

SH‐SY5Y cells = experiment: MTT cell viability assay; type: cell-based, human; conditions: Aβ25−35 aggregated with ERp57
Description: For the cell viability experiments, 96‐well plates were seeded with 10 000 cells/well. After 24 h, cells were treated with 30 μM Aβ25−35 aggregated for 72 h in the presence or in the absence of 0.12 μM of ERp57 or GST recombinant proteins (in a 1:250 ratio), in a final volume of 150 μl per well. Plates were incubated for 24 h in an incubator at 37°C, 5% of CO2, and 99% RH. Thereafter, 20 μl of (3‐[4,5‐Dimethylthiazol‐2‐yl]‐2,5‐Diphenyltetrazolium Bromide) (MTT) dye (stock solution 5 mg/ml in PBS) (catalog number #M2003) was added to the wells and incubated for additional 2 h at 37°C and 5% CO2. Water‐insoluble formazan crystals were dissolved in 100 μl of DMSO (catalog number #472301). For spectrophotometric measurements, Appliscan® plate reader (Thermo scientific) was used at the wavelength 570 nm, with reference set at 690 nm.

tau = test system: tau; set-up: method as in Xu et al., [2013]; conditions: within the cell; ref Xu et al., [2013]; cited from earlier work

## C[C@@H]1CC[C@@]2(OC1)O[C@H]1C[C@H]3[C@@H]4CC=C5C[C@@H](O)CC[C@]5(C)[C@H]4CC[C@]3(C)[C@H]1[C@@H]2C [diosgenin]
AD 5XFAD mice model
  object recognition memory; amyloid plaques and neurofibrillary tangles: significantly improves performance of object recognition memory and reduces amyloid plaques and neurofibrillary tangles

## Amyloid beta peptide fragment 25-35 (Aβ25-35)
[1]
  KD1 (fit with two binding sites, high-affinity site): 34 µM
  KD2 (fit with two binding sites, low-affinity site): 3.3 mM

## CC[C@H](C)[C@H](NC(=O)[C@H](C)NC(=O)CNC(=O)[C@H](CCCCN)NC(=O)[C@H](CC(N)=O)NC(=O)[C@H](CO)NC(=O)CN)C(=O)N[C@H](C(=O)NCC(=O)N[C@@H](CC(C)C)C(=O)N[C@@H](CCSC)C(=O)O)[C@@H](C)CC [Aβ25−35] (H-GSNKGAIIGLM-OH)
ERp57
  Kd: 33 ± 2 µM
SH‐SY5Y cells
  toxicity of Aβ25−35 bound by ERp57: no longer leads to toxicity

## PDI: protein disulfide isomerase
tau
  effect on tau fibril formation: able to reduce the formation of tau fibrils
